According to ChEMBL document CHEMBL1128614, “Proctolin and related N-methylated pentapeptides selectively contract locust foregut but not rat ileum” (1995):
Square brackets hold non-standard residues; d marks the D form. Peptide text beside a SMILES is read from it. NMeT = CN[C@H](C(=O)O)[C@@H](C)O; NMeL = CN[C@@H](CC(C)C)C(=O)O

Experiments:
Format in all cases: functional
[1] = test system: Schistocerca gregaria; assay: Tested for tissue (foreguts isolated from Schistocerca gregaria) contraction response; No activity
[2] = test system: Schistocerca gregaria; assay: Tested for contraction Schistocerca gregaria gut at concentrations ranging from 10 nM to 5 uM and maximum response concentration reported
[3] = test system: Schistocerca gregaria; assay: Tested for tissue (foreguts isolated from Schistocerca gregaria) contraction response at 2 uM
[4] = test system: Schistocerca gregaria; assay: Tested for tissue (foreguts isolated from Schistocerca gregaria) contraction response at 80 uM

CC(C)C[C@@H](NC(=O)[C@@H](Cc1ccc(O)cc1)N(C)C(=O)[C@@H](N)CCCN=C(N)N)C(=O)N1CCC[C@@H]1C(=O)N[C@H](C(=O)O)[C@H](C)O
Activity [1]: No activity

CC(C)C[C@@H](NC(=O)[C@@H](Cc1ccc(O)cc1)NC(=O)[C@@H](N)CCCN=C(N)N)C(=O)N1CCC[C@@H]1C(=O)N[C@H](C(=O)O)[C@H](C)O
Concentration [2]: 1 µM

CC(C)C[C@H](NC(=O)[C@H](Cc1ccc(O)cc1)NC(=O)[C@@H](N)CCCN=C(N)N)C(=O)N1CCC[C@H]1C(=O)N(C)[C@H](C(=O)O)[C@@H](C)O (H-RYLP[NMeT]-OH)
Max contraction [3]: 78%

CC(C)C[C@@H](C(=O)N1CCC[C@H]1C(=O)N[C@H](C(=O)O)[C@@H](C)O)N(C)C(=O)[C@H](Cc1ccc(O)cc1)NC(=O)[C@@H](N)CCCN=C(N)N (H-RY[NMeL]PT-OH)
Max contraction [4]: 52%
